Assay results from US20240398771A1, “TREATMENT OF SCLERODERMA AND RAYNAUD'S SYNDROME” (Aisa Pharma, Inc., priority 2023, published 2024).
Entries after “also recorded” stand apart in the source; their conditions may differ.

Assays:
participants with SSc-RP [1] = experiment: SHAQ Visual Analog Scale - Intestinal Problems; type: in vivo, human; conditions: Modified ITT, Part A
Description: (§1) Results: Patients in the study were administered the Scleroderma Health Assessment Questionnaire (SHAQ) at the time of study entry and during clinic visits following the treatment period. The study is a two-part, parallel arm design, prospective, double-blind, randomized study conducted in Australia (Flinders Medical Center). 27 patients were randomized into the first phase of the study, following which a DSMB meeting was held, which reviewed data on the primary study endpoint and key Raynaud's secondary endpoints. Data on the SHAQ was not available for the DSMB to review. The mITT population, in which any data was available post treatment was 24 patients was the analysis population for this first part of the study. The second part (i.e., part B) of the study will randomize 36 patients in a double blind, randomized, prospective, placebo controlled, crossover study. In the first part (i.e., Part A) of the study for which data is presented, patients were randomized into 6 groups, cilnidipine at two doses (10 and 20 mg) alone and in combination with tadalafil 5 mg, tadalafil 5 mg alone, and placebo. […] The DSMB recommended that the study proceed into its double blind prospective cross overpowered second phase and compare cilnidipine 20 mg alone to placebo. […] Cilnidipine treatment may reduce patient-reported SSc disease disability compared to placebo • b. Cilnidipine treatment may reduce patient-reported SSc disease alternative disability compared to placebo • c. Cilnidipine treatment may reduce patient-reported SSc disease pain* compared to placebo • d. Cilnidipine treatment may reduce patient-reported SSc disease severity compared to placebo • e. Cilnidipine treatment may reduce patient-reported SSc disease skin ulcer severity rating compared to placebo • f Cilnidipine treatment may reduce patient-reported SSc disease breathing difficulty compared to placebo • g. […] SSc disease pain comprises not only pain from Raynaud's but joint pain, headache, odynophagia, back pain, pain from skin ulceration, and neuropathic pain). Table E includes results of the Scleroderma Health Assessment Questionnaire.

participants with SSc-RP [2] = experiment: SHAQ Visual Analog Scale - Finger Ulcers; type: in vivo, human; design: Finger Ulcers, Baseline, Mean / Finger Ulcers, Baseline, Median / Finger Ulcers, Change from Baseline, Mean / Finger Ulcers, Change from Baseline, Median: scale not given here
Description: as §1

participants with SSc-RP [3] = experiment: Adverse events and serious adverse events (safety, tolerability); type: in vivo
Text: In this study, AEs and SAEs will be reported for all participants from the time of randomization until the completion of the Follow-up/EOS visit. Adverse events that are ongoing at the EOS visit will be marked as Not Recovered/Not resolved on the AE eCRF page.
An AE is any event, side effect, or other untoward medical occurrence that occurs in conjunction with the use of a medicinal product in humans, whether or not considered to have a causal relationship to this treatment. An AE can, therefore, be any unfavorable and unintended sign (that could include a clinically significant abnormal laboratory finding), symptom, or disease temporally associated with the use of a medicinal product, whether or not considered related to the medicinal product.
Severity of AEs will be graded by the Investigator as one of: • Mild (Grade 1): A type of AE that is usually transient and may require only minimal treatment or therapeutic intervention.
An SAE is an AE occurring during any study phase (i.e. baseline, treatment, washout, or follow-up), and at any dose of the study drug (active or placebo), that fulfills one or more of the following: • Results in death • It is immediately life-threatening • It requires in participant hospitalization or prolongation of existing hospitalization • It results in persistent or significant disability or incapacity • Results in a congenital abnormality or birth defect • It is an important medical event that may jeopardize the participant or may require medical intervention to prevent one of the outcomes listed above.
Adverse events will be coded using the most current version of the MedDRA® Version 22.0 or higher. The analysis of AEs will be based on the concept of treatment emergent AEs. Treatment emergent AEs will be tabulated by treatment group and will include the number of participants for whom the event occurred, the severity, and relationship to study drug. Treatment emergent AEs (TEAEs) leading to discontinuation and SAEs with onset after the start of study drug will also be summarized.
Treatment-emergent AEs (TEAEs) are defined as AEs that occur or worsen after the dose of study drug. If the timing of the start of an AE could not be determined unambiguously from the start or end dates provided, it will be assumed to be a TEAE. An AE is considered related if the relationship to either of the study drug has been indicated as possibly or probably or definite related by the investigator. An AE leading to study withdrawal is defined as an AE that cause a subject early terminated from the study. AEs will be identified as emerging in the following parts: • TEAEs for Part A will be those that started during Part A (i.e., from the first dose in Part A to end of follow up of Part A) • TEAEs for Part B will be those that started during Part B (i.e., from the first dose in Part B to end of follow-up of Part B).
• Incidence of treatment emergent adverse events (AEs) and serious adverse events (SAEs), including clinically significant vital signs. For Part A safety will be assessed from the time of randomization until 7 days following the last protocol dose. For Part B, participants will be followed for 28 days from the last study dose. • Serious adverse events will be monitored by a DSMB (Part A) and Drug Safety Officer (Part B) on an ongoing basis throughout the study. • Adverse events will be coded using the MedDRA and summarized by SOC, PT, and treatment group.

[4] = oral dosing; cited from earlier work
[5] = Cilnidipine 10 mg, Modified ITT, Part A
[6] = Cilnidipine 20 mg, Modified ITT, Part A
[7] = Tadalafil 5 mg, Modified ITT, Part A

SMILES: COCCOC(=O)C1=C(C)NC(C)=C(C(=O)OC/C=C/c2ccccc2)C1c1cccc([N+](=O)[O-])c1 (stereo not drawn) [Cilnidipine, 1,4-dihydro-2,6-dimethyl,4-(3-nitrophenyl)-3,5-pyridinedicarboxylic acid 2-methoxyethyl (2 E)-3-phenyl-2-propenyl ester]
- Visual Analog Scale-Intestinal Problems, Baseline, Median (participants with SSc-RP [1]; Cilnidipine 20 mg): 1.000
- Finger Ulcers, Baseline, Mean (participants with SSc-RP [2]; [5]): 0.700
- Finger Ulcers, Baseline, Median (participants with SSc-RP [2]; [5]): 0.500
- Finger Ulcers, Change from Baseline, Median (participants with SSc-RP [2]; [5]): −0.350
- Finger Ulcers, In Clinic Visit (Day 12), Median (participants with SSc-RP [2]; [5]): 0.000
- Finger Ulcers, Baseline, Mean (participants with SSc-RP [2]; [6]): 1.800
- Finger Ulcers, Baseline, Median (participants with SSc-RP [2]; [6]): 0.300
- Finger Ulcers, Change from Baseline, Median (participants with SSc-RP [2]; [6]): 0.000
- Finger Ulcers, In Clinic Visit (Day 12), Median (participants with SSc-RP [2]; [6]): 0.700
- patient-reported SSc disease skin ulcer severity rating compared to placebo (participants with SSc-RP [2]; Example 4, SHAQ, mITT Part A): may reduce
- Safety: withdrawals (participants with SSc-RP [3]; Cilnidipine 20 mg (n = 8)): 1 withdrawal
- Safety: number of AE (participants with SSc-RP [3]; Cilnidipine 20 mg (n = 8), HA-mild): 1AE (HA-mild;
- severity grade of adverse events (participants with SSc-RP [3]; Example 4): only Grade 1 Adverse Events (AEs) were reported; also recorded: only mild (Grade 1) adverse events occurred
- tolerability (participants with SSc-RP [3]; Example 4, 10 mg and 20 mg, alone or in combination with tadalafil): well tolerated; also recorded: good tolerability
- overall adverse event rate / incidence of Adverse Events (participants with SSc-RP [3]; Example 4, all patients who received any dose of cilnidipine (n=17)): 17%
- Safety: withdrawals (participants with SSc-RP [3]; Pooled Cilnidipine (n = 9)): T); no withdrawals
- Safety: number of AE (participants with SSc-RP [3]; Pooled Cilnidipine (n = 9), AE in combo with T): 1AE (in combo with
- time to achieve maximal plasma concentrations (Tmax) [4]: about 2 hours

SMILES: CN1CC(=O)N2[C@H](c3ccc4c(c3)OCO4)c3[nH]c4ccccc4c3C[C@@H]2C1=O [Tadalafil]
- Visual Analog Scale-Intestinal Problems, Baseline, Mean (participants with SSc-RP [1]; Tadalafil 5 mg): 0.925
- Visual Analog Scale-Intestinal Problems, Baseline, Median (participants with SSc-RP [1]; Tadalafil 5 mg): 0.950
- Visual Analog Scale-Intestinal Problems, Change from Baseline, Mean (participants with SSc-RP [1]; Tadalafil 5 mg): −0.250
- Visual Analog Scale-Intestinal Problems, Change from Baseline, Median (participants with SSc-RP [1]; Tadalafil 5 mg): −0.150
- Visual Analog Scale-Intestinal Problems, In Clinic Visit (Day 12), Mean (participants with SSc-RP [1]; Tadalafil 5 mg): 1.175
- Visual Analog Scale-Intestinal Problems, In Clinic Visit (Day 12), Median (participants with SSc-RP [1]; Tadalafil 5 mg): 0.100
- Visual Analog Scale-Intestinal Problems, Percent Change from Baseline, Mean (participants with SSc-RP [1]; Tadalafil 5 mg): −2.55%
- Visual Analog Scale-Intestinal Problems, Percent Change from Baseline, Median (participants with SSc-RP [1]; Tadalafil 5 mg): −88.89%
- Finger Ulcers, Baseline, Mean (participants with SSc-RP [2]; [7]): 2.125
- Finger Ulcers, Baseline, Median (participants with SSc-RP [2]; [7]): 0.050
- Finger Ulcers, Change from Baseline, Mean (participants with SSc-RP [2]; [7]): −0.967
- Finger Ulcers, Change from Baseline, Median (participants with SSc-RP [2]; [7]): −0.100
- Finger Ulcers, In Clinic Visit (Day 12), Mean (participants with SSc-RP [2]; [7]): 1.867
- Finger Ulcers, In Clinic Visit (Day 12), Median (participants with SSc-RP [2]; [7]): 0.000
- Finger Ulcers, Percent Change from Baseline, Mean (participants with SSc-RP [2]; [7]): −66.67%
- Finger Ulcers, Percent Change from Baseline, Median (participants with SSc-RP [2]; [7]): −66.67%
- Adverse Events (AEs): worst AE by group (participants with SSc-RP [3]; tadalafil monotherapy group): Worst AE in tadalafil
- time to achieve maximal plasma concentrations (Tmax) [4]: 2 h
